According to patent publication US12110313B2, “Engineered bacterial ribosome compositions and methods” (ARIZONA BOARD OF REGENTS ON BEHALF OF ARIZONA STATE …, priority 2019, dated 2024):
Residue numbers refer to the chain shown, from its start.

B1: Asp29: murine INF-β with replacement of Asn29 with Asp29 (protein, UniProt P01575 22-182, looked up, variant N29D)
Interferon beta: INYKQLQLQERTNIRKCQELLEQLNGKIDLTYRADFKIPMEMTEKMQKSYTAFAIQEMLQNVFLVFRNNFSSTGWNETIVVRLLDELHQQTVFLKTVLEEKQEERLTWEMSSTALHLKSYYWRVQRYLKLMKYNSYAWMVVRAEIFRNFLIIRRLTRNFQN
B2: Ala29: murine INF-β with replacement of Asn29 with Ala29 (protein, UniProt P01575 22-182, looked up, variant N29A)
Interferon beta: B1 Interferon beta with D29A
B3: non-glycosylated IFN-β: non-glycosylated murine interferon-β (protein, UniProt P01575 22-182, looked up)
Interferon beta: B1 Interferon beta with D29N
modifications: non-glycosylated

Assays:
[1] = tested on: wild-type ribosomes; assay: Incorporation of glycosylated amino acids into proteins from activated suppressor tRNAs by wild-type ribosomes; assay type: biochemical, E. coli; settings: nonsense codon suppression with activated suppressor tRNA
Description: FIG. 3 depicts glycosylated amino acids incorporated into proteins by wild-type E. coli ribosomes.
Many glycosylated amino acids can be incorporated into proteins in quite good yield from activated suppressor tRNAs by nonsense codon suppression employing wild-type ribosomes. However, in numerous experiments, when any of these was O- or N-acetylated at one or more positions, the result was virtually complete loss of the ability of the activated tRNAs to suppress nonsense codons. Accordingly, we have used O-GlcNAc-puromycin (FIG. 4) to select modified ribosomes capable of incorporating N-acetylglycosyl amino acids.
Post-translational protein glycosylation is both ubiquitous in nature and quite important. […] However, for whatever reason(s), neither O- nor N-acetylated glycosyl amino acids could be incorporated in good yield with wild-type ribosomes. We wish to select modified ribosomes capable of incorporating O- or N-acetylated glycosyl amino acids efficiently.

[2] = tested on: CD40 expression in RAW 264.7 mouse macrophage cells; assay: CD40 upregulation in RAW 264.7 cells by flow cytometry with PE-conjugated anti-mouse CD40 antibody; assay type: cell-based
Procedure: FIG. 6. Flow cytometry analysis of RAW 264.7 cells treated with murine IFNs and probed with PE-conjugated anti-mouse CD40 antibody. Upper left, 0.6 pg/mL glycosylated IFN; upper right, 6 pg/mL non-glycosylated IFN; lower left, 0.6 pg/mL non-glycosylated IFN; lower right, control lacking IFN.
These four modified INF-βs were tested in parallel with wild-type (fully glycosylated) mouse IFN-β for their activities. Our assay system uses RAW 264.7 mouse macrophage cells (ATCC TIB-71), which have been transformed using Abelson murine leukemia virus. […] CD40 upregulation was probed using a PE (phycoerythrin)-conjugated anti-mouse CD40 antibody. As shown (FIG. 6), this assay system has been used successfully to compare fully glycosylated and non-glycosylated murine INF-βs by flow cytometry.

[3] = tested on: antiviral activity; settings: murine INF-β, modification at position 29; cited from earlier work

Row | Molecule | response in CD40 upregulation assay [2] | reduction of antiviral activity from wild-type [3] | further results
1 | N[C@@H](Cc1ccc(OC2O[C@H](CO)[C@@H](O[C@@H]3O[C@H](CO)[C@H](O)[C@H](O)[C@H]3O)[C@H](O)[C@H]2O)cc1)C(=O)O (stereo partly drawn) [O-lactosyltyrosine] | – | – | incorporation into proteins by wild-type ribosomes [1]: incorporated into proteins quite well
2 | glycosylated IFN-β: fully glycosylated murine interferon-β | dose-dependent responses | – | potency relative to non-glycosylated IFN-β ([2]; CD40 upregulation): about 10 fold
3 | B1 | – | two-fold | –
4 | B2 | – | 10 fold | –
5 | B3 | dose-dependent responses | – | –
